# Reference: patent US11608319B2, “Beta-amino acid derivative, kinase inhibitor and pharmaceutical composition containing the same, and method for performing an in vivo related application that benefits from the inhibition of a kinase” (Industrial Technology Research Institute, priority 2019, dated 2023)
# Several values for one entry are separate records, joined by “and”; a condition that tells them apart may be missing. Equal entries are not always repeated. Structures can show the parent of a compound that is named as a salt. Where two headings read alike, the source gives them in different places.
# Experiments:
# [1] = tested on: rabbit eyes with normal intraocular pressure
# Description: The maximal effect (Emax) dose evaluation of the intraocular pressure reduction model in normal rabbit
# Animals: Male New Zealand white rabbits (n=7/each group);
# Administration: 50 μL of the test compound was instilled in the right eye (dosed eye) and 50 μL of the vehicle (without the test compound) in the left eye (control eye) of each experimental animal. The 3 formulation mentioned above were administered once a day for 3 consecutive days.
# The intraocular pressure of each animal was measured by Tono-Vet (iCare) before administration (0 hours) and 2, 4, 6 and 8 hours after administration on Day 1 and Day 3.
# The maximum magnitude of the reduction in intraocular pressure %=(Intraocular pressure of the control eye−Intraocular pressure of the dosed eye)/Intraocular pressure of the control eye*100
# The data presented in this experiment is the data that has removed the unqualified data (white rabbits with an intraocular pressure difference ≥2 mmHg (n=1) in the two eyes on Day 1 and >5 mmHg in the two eyes before the administration on the Day 3 (n=1) have been removed) and removed the rebound high intraocular pressure (n=3).
# [2] = tested on: rabbit eyes with high intraocular pressure induced by hypertonic saline; assay: Model of hypertonic saline induced high intraocular pressure rabbit (acute high intraocular pressure model); assay type: in vivo, New Zealand white rabbit; design: AUC: unit not given beside the values
# Description: Evaluation of the effect of reducing intraocular pressure in model of hypertonic saline induced high intraocular pressure rabbit (acute high intraocular pressure model)
# Experimental animal: New Zealand white rabbit, male, weighing 2.0-3.0 kg. New Zealand white rabbits were purchased from a qualified laboratory animal rabbit farm in Taiwan before the experiment and were raised in the Animal Center of National Chiao Tung University.
# Negative control 1: Physiological saline
# Negative control 2: Vehicle without test substance (containing 5% mannitol, 20 mM boric acid and 0.125% nonoxynol-9)
# Experimental method: male New Zealand white rabbits were weighed and grouped and then anesthetized. 160 μL of hypertonic saline (5% NaCl) was injected into the vitreous bodies of the left and right eyes of the rabbit under anesthesia, so that the rabbit eyes became a state of high intraocular pressure. […] The intraocular pressure (TOP) detection time points were before anesthesia (0 hours) and 0.5, 1, 1.5, 3, and 5 hours after administration.
# Maximum intraocular pressure difference: The difference between an individual's TOP readings and the average TOP readings of the negative control group 1 (physiological saline) at the time point at which the maximum response is recorded (J Ocul Pharmacol Ther. 2010 April; 26(2): 125-132)
# MYLK4 = MYLK4 (Homo sapiens (Human), UniProt Q86YV6); assay: Assay for inhibitory effect on MYLK-4, LanthaScreen Eu Kinase Binding Assay
# Sequence of MYLK4 (Q86YV6 whole entry): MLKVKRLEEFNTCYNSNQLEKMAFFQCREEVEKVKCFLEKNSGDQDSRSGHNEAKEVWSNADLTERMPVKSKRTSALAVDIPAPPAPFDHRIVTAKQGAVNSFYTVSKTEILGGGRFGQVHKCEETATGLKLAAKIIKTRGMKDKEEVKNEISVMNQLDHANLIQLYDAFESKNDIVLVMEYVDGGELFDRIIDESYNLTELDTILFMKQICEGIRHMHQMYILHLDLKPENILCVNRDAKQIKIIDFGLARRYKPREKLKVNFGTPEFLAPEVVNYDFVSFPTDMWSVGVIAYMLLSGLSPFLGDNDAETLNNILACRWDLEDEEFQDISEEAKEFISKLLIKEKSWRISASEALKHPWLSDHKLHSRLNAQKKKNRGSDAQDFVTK
# [3] = tested on: rabbit eyes with high intraocular pressure induced by magnetic beads; assay: Model of magnetic bead induced high intraocular pressure rabbit (intraocular pressure >30 mmHg); assay type: in vivo, New Zealand white rabbit
# Description: Evaluation of the effect of reducing intraocular pressure in model of magnetic bead induced high intraocular pressure rabbit (high intraocular pressure model with intraocular pressure >30 mmHg)
# Experimental animal: New Zealand white rabbit, male, body weight 2.0-3.0 kg. New Zealand white rabbits were purchased from Huijun Farm (Changhua, Taiwan) before the experiment and were raised in the Animal Center of National Chiao Tung University.
# Experimental method: After weighing and grouping male New Zealand white rabbits, the New Zealand white rabbits were anesthetized with Zoletil 50 0.2 mL/kg. 50 μL of magnetic bead solution (50 mg/mL, magnetic bead size of 10 μm) was injected into the left and right anterior eye chambers of the rabbit under anesthesia to make rabbit eyes become a state of high intraocular pressure. After the injection to the anterior chamber of the eye, a strong […] iron magnet ring was immediately put around the eye for 10-20 minutes to make the magnetic beads completely block the drainage tissue of the aqueous humor. After disinfecting the eyeball with antibiotics, moisturizing eye ointment was provided to restore the eyeball, and the intraocular pressure rising was waited. […] The experiment was conducted for 2 consecutive days.
# [4] = tested on: rabbit eyes with normal intraocular pressure; assay: Evaluation of the effect of decreasing intraocular pressure in a model of rabbit with normal intraocular pressure; assay type: in vivo, New Zealand white rabbit
# Description: Evaluation of the Effect of Decreasing Intraocular Pressure in a Model of Rabbit with Normal Intraocular Pressure
# Experimental animal: New Zealand white rabbit, male, weighing more than 2 kg. New Zealand white rabbits were purchased from Huijun Farm (Changhua, Taiwan). After a one-week quarantine period, they were raised in MASTER LABORATORY Co., Ltd under the environmental conditions of 16-22° C., 30-70% relative humidity (RH), 8 hours day/16 hours night.
# (1) Evaluation of the Effect of Reducing Intraocular Pressure
# After weighing 12 New Zealand white rabbits (2.0-4.0 kg) and grouping them (n=3-6 in each group), the white rabbits were fixed with a wrap.
# normal macaques = assay: Intraocular pressure in animal model of macaque with normal intraocular pressure; assay type: in vivo; conditions: eye drop 0.1% or 0.03%
# Description: The intraocular pressure of animals was measured by a pneumatic tonometer (Model 30™ Pneumatonometer). Animal anesthesia was required before intraocular pressure measurement. After topical administration (once a day), the intraocular pressure of the animals was measured at the set time points.
# YSK4 = YSK4 (Homo sapiens (Human), UniProt Q56UN5); assay: Assay for inhibitory effect on YSK-4, Z'-LYTE kinase assay; assay type: biochemical
# Sequence of YSK4 (Q56UN5 whole entry): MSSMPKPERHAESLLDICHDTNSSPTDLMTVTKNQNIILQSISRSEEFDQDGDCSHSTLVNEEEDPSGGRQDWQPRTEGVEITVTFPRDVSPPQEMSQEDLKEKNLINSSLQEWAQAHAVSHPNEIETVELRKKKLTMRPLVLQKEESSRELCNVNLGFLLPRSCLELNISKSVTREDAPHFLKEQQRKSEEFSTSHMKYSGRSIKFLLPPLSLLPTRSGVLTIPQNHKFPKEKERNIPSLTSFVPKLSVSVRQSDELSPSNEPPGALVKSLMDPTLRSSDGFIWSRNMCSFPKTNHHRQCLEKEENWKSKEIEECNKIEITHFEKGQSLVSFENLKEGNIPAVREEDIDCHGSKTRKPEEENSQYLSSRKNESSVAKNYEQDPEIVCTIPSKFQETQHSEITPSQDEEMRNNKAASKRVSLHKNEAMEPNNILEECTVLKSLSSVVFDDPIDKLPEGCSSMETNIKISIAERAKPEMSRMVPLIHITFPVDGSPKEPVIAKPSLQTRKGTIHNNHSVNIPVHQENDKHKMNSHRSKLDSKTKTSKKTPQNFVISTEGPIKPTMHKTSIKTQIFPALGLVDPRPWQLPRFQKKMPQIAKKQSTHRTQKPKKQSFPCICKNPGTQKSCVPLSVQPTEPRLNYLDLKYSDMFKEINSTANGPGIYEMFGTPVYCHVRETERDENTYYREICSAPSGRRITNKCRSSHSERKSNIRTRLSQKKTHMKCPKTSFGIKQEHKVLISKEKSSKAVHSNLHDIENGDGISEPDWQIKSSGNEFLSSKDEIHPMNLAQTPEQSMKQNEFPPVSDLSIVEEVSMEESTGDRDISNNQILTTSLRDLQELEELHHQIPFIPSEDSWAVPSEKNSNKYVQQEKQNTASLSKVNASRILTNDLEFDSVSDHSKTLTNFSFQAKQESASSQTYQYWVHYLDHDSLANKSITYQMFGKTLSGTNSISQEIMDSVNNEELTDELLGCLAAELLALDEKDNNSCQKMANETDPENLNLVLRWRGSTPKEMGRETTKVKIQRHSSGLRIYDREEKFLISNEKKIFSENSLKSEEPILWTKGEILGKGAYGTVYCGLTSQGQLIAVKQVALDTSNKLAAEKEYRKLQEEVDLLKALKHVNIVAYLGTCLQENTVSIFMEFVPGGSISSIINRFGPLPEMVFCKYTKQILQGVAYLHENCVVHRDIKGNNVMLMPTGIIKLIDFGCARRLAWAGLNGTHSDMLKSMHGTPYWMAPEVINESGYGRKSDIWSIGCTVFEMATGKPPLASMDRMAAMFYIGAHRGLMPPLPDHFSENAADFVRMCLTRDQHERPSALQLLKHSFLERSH
# Description: C. Assay for Inhibitory Effect on YSK-4
# The experimental procedure referred to the Z′-LYTE Screening Protocol and Assay Conditions provided by ThermoFisher Scientific.
# C-1. Material Preparation
# Peptide/Kinase Mixture was pre-diluted with Kinase Buffer to 2× working concentration.
# ATP solution was pre-diluted with Kinase Buffer (50 mM HEPES pH 7.5, 0.01% BRIJ-35, 10 mM MgCl2, 1 mM EGTA) to 4× working concentration.
# The development reagent solution is Novel PKC Lipid Mix, which contains 2 mg/mL Phosphatidyl Serine, 0.2 mg/mL DAG in 20 mM HEPES, pH 7.4 and 0.3% CHAPS, and was pre-diluted 10 fold with development buffer.
# 1. 100 nL of the above diluted test compound and 2.4 μL of kinase buffer were added to a black 384-well plate (Corning, Cat. NO. 4514), then add 5 μL of the peptide/kinase mixture mentioned above was added thereto, and after that 2.5 μL of ATP solution was added thereto, and the culture plate was shaken for 30 seconds.
# 2. Next, the culture plate was placed at room temperature and incubated for 60 minutes.
# 3. After that 5 μL of the development reagent solution was added and the culture plate was shaken for 30 seconds in the dark, and then the data was read and analyzed with a fluorescence plate reader.
# In addition, for the kinase, the following control group was prepared and placed on the same culture plate as the kinase:
# (1) 0% Phosphorylation Control (100% Inhibition Control)
# This control yields 100% cleaved peptide in the Development Reaction.
# (2) 100% Phosphorylation Control
# A synthetically phosphorylated peptide of the same sequence as the peptide substrate is used as the 100% Phosphorylation Control.
# The Phosphorylation percent achieved in a specific reaction well (Experimental group) was calculated based on the 0% Phosphorylation Control and 100% Phosphorylation Control.
# ROCK1 = ROCK1 (Homo sapiens (Human), UniProt Q13464); assay: biochemical
# Sequence of ROCK1 (Q13464 whole entry, species assumed): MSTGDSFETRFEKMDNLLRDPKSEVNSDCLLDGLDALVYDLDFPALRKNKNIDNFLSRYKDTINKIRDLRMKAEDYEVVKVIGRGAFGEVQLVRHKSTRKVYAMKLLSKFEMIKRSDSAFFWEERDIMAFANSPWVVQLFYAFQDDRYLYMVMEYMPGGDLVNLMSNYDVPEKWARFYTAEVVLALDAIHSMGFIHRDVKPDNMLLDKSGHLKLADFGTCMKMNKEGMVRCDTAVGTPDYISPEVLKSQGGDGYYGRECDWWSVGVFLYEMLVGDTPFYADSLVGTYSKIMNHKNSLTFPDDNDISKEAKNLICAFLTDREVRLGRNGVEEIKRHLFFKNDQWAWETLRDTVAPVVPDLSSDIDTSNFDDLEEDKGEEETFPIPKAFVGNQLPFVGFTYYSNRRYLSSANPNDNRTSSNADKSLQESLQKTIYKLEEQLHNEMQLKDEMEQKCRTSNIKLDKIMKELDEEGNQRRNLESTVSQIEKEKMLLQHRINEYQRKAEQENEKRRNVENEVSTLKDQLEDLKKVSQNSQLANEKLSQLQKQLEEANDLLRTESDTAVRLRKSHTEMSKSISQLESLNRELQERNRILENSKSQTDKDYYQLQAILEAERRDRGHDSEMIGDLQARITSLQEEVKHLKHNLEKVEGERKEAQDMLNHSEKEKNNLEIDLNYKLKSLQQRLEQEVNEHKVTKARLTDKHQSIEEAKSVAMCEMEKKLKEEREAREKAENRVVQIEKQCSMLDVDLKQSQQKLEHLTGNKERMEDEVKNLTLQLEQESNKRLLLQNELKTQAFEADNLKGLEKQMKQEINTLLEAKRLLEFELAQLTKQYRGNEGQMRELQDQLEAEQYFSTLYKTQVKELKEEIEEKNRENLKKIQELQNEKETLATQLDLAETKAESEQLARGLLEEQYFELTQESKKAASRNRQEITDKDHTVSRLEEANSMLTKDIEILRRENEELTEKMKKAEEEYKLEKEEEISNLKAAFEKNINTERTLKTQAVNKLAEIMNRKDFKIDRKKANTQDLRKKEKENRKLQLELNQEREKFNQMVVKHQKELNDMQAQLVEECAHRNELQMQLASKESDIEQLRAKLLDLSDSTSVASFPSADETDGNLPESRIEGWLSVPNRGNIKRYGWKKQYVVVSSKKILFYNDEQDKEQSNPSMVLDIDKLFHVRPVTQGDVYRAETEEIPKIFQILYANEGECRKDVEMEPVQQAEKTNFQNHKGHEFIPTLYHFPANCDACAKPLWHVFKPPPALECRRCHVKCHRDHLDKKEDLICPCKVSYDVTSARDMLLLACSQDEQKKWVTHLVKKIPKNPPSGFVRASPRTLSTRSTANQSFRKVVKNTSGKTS
# [5] = Content analysis for candidate drug in aqueous humor, iris and ciliary body after administration
# Description: (4) Content Analysis for Candidate Drug in Aqueous Humor (AH) after Administration
# cornea of rabbit eyes = assay: Observation of cornea with a slit lamp after 7 days of administration; assay type: in vivo, New Zealand white rabbit; conditions: 0.1% eye drops, continuous administration for 7 days, once a day
# rabbit eyes = assay: Eye irritation evaluation (OECD/OCDE 405); assay type: in vivo, New Zealand white rabbit
# Description: (2) Irritation Evaluation
# [6] = tested on: Human Trabecular Meshwork (HTM) cells; assay: Expression of MYLK-4 in HTM cells by Western blotting; assay type: cell-based; conditions: HTM cells treated overnight with 50 μg/mL dexamethasone
# Description: Expression of MYLK-4 in Cells
# Human Trabecular Meshwork (HTM) cells (Cat. NO. 6590) were obtained from ScienCell Research Laboratories. HTM cells were maintained in Trabecular Meshwork Cell Medium (TMCM) (Cat. NO. 6591). TMCM formulated from 500 mL basal medium, 10 mL FBS (Cat. NO. 0010), 5 mL trabecular meshwork cell growth supplement (TMCGS, Cat. NO. 6592) and 5 mL penicillin/streptomycin solution (P/S, Cat. NO. 503). When the cell growth reached 70-80% saturation, the HTM cells were treated overnight with 50 μg/mL dexamethasone (Cat. NO. 4902, Sigma).
# The expression of MYLK4 and GAPDH in cell lysates was analyzed by Western blotting method. First, the cells were collected and washed with 1×RIPA (50 mM Tris-HCl, pH 7.4, 150 mM NaCl, 0.25% deoxycholic acid, 0.1% NP-40, 1 mM EDTA, phosphatase inhibitor and protease inhibitor mixture). Next, the cell lysates were separated by SDS-PAGE (sodium dodecyl sulfate polyacrylamide gel electrophoresis) and transferred to PVDF membrane (iBlot™ 2 Transfer Stacks, polyvinylidene fluoride membrane, Invitrogen). Immunoblotting was performed on the membrane with primary antibodies (mouse anti-MYLK4 antibody (1:1,000, Cat. NO. SAB1412951) and mouse anti-GAPDH antibody (1:1,000, Cat. NO. G8795)), wherein GAPDH was used as a loading control. […]
# [7] = dose 0.1%, versus physiological saline group
# [8] = eye drops containing 0.1% and 0.03% Compound 20
smiles,measurement,setting,value
"NC[C@@H](C(=O)Nc1ccc(-c2cn[nH]c2)cc1)c1ccccc1 [Compound 20, (S)—N-(4-(1H-pyrazol-4-yl)phenyl)-3-amino-2-phenylpropanamide dihydrochloride]",dose dependence of the reduction of intraocular pressure,"[1]; 0.01%, 0.03%, 0.1%",exhibits a dose dependent effect
same,increase of the reduction in intraocular pressure on Day 3 compared to Day 1,"[1]; 0.03% Compound 20, on average",~1 mmHg
same,The magnitude of intraocular pressure reduction (ΔIOP) (mmHg),"[1]; Day 1, 0.01% Compound 20, 50 μL eye drop",−2.9 ± 1.1 mmHg
same,The maximum magnitude of the reduction in intraocular pressure,"[1]; Day 1, 0.01% Compound 20, versus control eye",18.7%
same,The magnitude of intraocular pressure reduction (ΔIOP) (mmHg),"[1]; Day 1, 0.03% Compound 20, 50 μL eye drop",−4.3 ± 1.2 mmHg
same,The maximum magnitude of the reduction in intraocular pressure,"[1]; Day 1, 0.03% Compound 20, versus control eye",28.3%
same,The magnitude of intraocular pressure reduction (ΔIOP) (mmHg),"[1]; Day 1, 0.10% Compound 20, 50 μL eye drop",−5.3 ± 0.6 mmHg
same,The maximum magnitude of the reduction in intraocular pressure,"[1]; Day 1, 0.10% Compound 20, versus control eye",32.2%
same,The magnitude of intraocular pressure desc (ΔIOP) (mmHg),"[1]; Day 3, 0.01% Compound 20, once a day",−2.7 ± 0.8 mmHg
same,The maximum magnitude of the reduction in intraocular pressure,"[1]; Day 3, 0.01% Compound 20, versus control eye",15.4%
same,The magnitude of intraocular pressure desc (ΔIOP) (mmHg),"[1]; Day 3, 0.03% Compound 20, once a day",−5.1 ± 1.2 mmHg
same,The maximum magnitude of the reduction in intraocular pressure,"[1]; Day 3, 0.03% Compound 20, versus control eye",30.5%
same,The magnitude of intraocular pressure desc (ΔIOP) (mmHg),"[1]; Day 3, 0.10% Compound 20, once a day",−5.2 ± 1.3 mmHg
same,The maximum magnitude of the reduction in intraocular pressure,"[1]; Day 3, 0.10% Compound 20, versus control eye",32.6%
same,maximum effect (Emax) dose in the normal intraocular pressure rabbit model,[1]; eye drop concentration,0.03%
same,Tmax,"[1]; rabbit, in vivo, dihydrochloride",6 h and 8 h
same,effect in reducing intraocular pressure compared with AR-13324 (t-test),"[2]; 0.1% Compound 20 versus 0.02% AR-13324, p<0.05",significantly better than that of AR-13324
same,AUC,"[2]; dose 0.1%, intraocular pressure over 0-5 hours",99.1
same,Maximum intraocular pressure difference (%),[2]; [7],−40.4%
same,Maximum intraocular pressure difference (mm Hg),[2]; [7],−18.0 ± 6.8 mm Hg
same,reduction of the intraocular pressure,[2]; eye drop containing 0.1%,about 18.0±6.8 mmHg
same,IC50,MYLK4,10 to 100 nM
same,reduction of intraocular pressure in percent,[3]; eye drop containing 0.03%,about 15.3%
same,reduction of intraocular pressure in percent,[3]; eye drop containing 0.1%,about 28.8%
same,time point at which maximum effect is achieved,[4]; dose 0.03%,8 h
same,Intraocular pressure difference (mmHg),"[4]; dose 0.03%, at time point of maximum effect",4.9 mmHg
same,maximum magnitude of the reduction in intraocular pressure,[4]; [8],4.4-4.9 mmHg
same,time of maximum effect (Emax) after administration,[4]; [8],6 to 8 h
same,"side effects, such as pink eye",normal macaques,without obvious side effects
same,effect of reducing intraocular pressure compared with 0.02% AR-13324,normal macaques; once a day,equivalent to or better than that of AR-13324
same,inhibitory effect on YSK4 (in words),YSK4,"simultaneously targets ROCK, MYLK-4 and YSK-4"
same,IC50,ROCK1,1 to 10 nM
same,content in the aqueous humor after administration,[5]; normal rabbits,can reach the requirement of ROCK inhibition
same,"drug concentration at the target tissue (iris and ciliary body, aqueous humor)",[5]; rabbit eyes with normal intraocular pressure,reaches the target effect IC90 or more within 8 hours
same,state of the cornea,cornea of rabbit eyes,free of damage and turbidity
same,eye irritation compared with AR-13324 (0.02%),rabbit eyes; Compound 20 at 0.1%,lower than AR-13324
same,eye irritation,rabbit eyes; [8],slight
C[C@@H]1C[C@H]2[C@@H]3CCC4=CC(=O)C=C[C@]4(C)[C@@]3(F)[C@@H](O)C[C@]2(C)[C@@]1(O)C(=O)CO [dexamethasone],expression level of MYLK-4,[6],higher than that of normal HTM cells
